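Interpolation was linear, between the two tested concentrations surrounding the appropriate level; five concentrations were tested over 48 hours in 96-well plates. Abbreviation: GI50, concentration required for 50% inhibition of growth.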 Calls of active or inactive are those of the source. No stated cut-off is given here; in the data, active = GI50 up to about 1.1 µM and inactive = higher.
Legend:
Assay in all cases: inhibition of tumour cell growth, NCI panel, 48 h
SF-539 = test system: SF-539
MCF7 = test system: MCF7
NCI/ADR-RES = test system: NCI/ADR-RES
HCT-15 = test system: HCT-15
DU-145 = test system: DU-145
MDA-N = test system: MDA-N
IGROV-1 = test system: IGROV-1
SNB-75 = test system: SNB-75
HCC 2998 = test system: HCC 2998
HT-29 = test system: HT-29
CAKI-1 = test system: CAKI-1
U-251 = test system: U-251
SF-268 = test system: SF-268
HL-60 = test system: HL-60
PC-3 = test system: PC-3
SF-295 = test system: SF-295
UACC-62 = test system: UACC-62
NCI-H522 = test system: NCI-H522
RXF 393 = test system: RXF 393

Structure (SMILES)	GI50 (SF-539)	GI50 (MCF7)	GI50 (NCI/ADR-RES)	GI50 (HCT-15)	GI50 (DU-145)	GI50 (MDA-N)	GI50 (IGROV-1)	GI50 (SNB-75)	GI50 (HCC 2998)	GI50 (HT-29)	GI50 (CAKI-1)	GI50 (U-251)	GI50 (SF-268)	GI50 (HL-60)	GI50 (PC-3)	GI50 (SF-295)	GI50 (UACC-62)	GI50 (NCI-H522)	GI50 (RXF 393)
CC1CN=C(N(C(=O)Nc2ccc(Cl)cc2)c2cccc(Cl)c2)S1 (stereo unspecified)	33.7 µM (inactive)	34.7 µM (inactive)	19.2 µM (inactive)	11.3 µM	46.8 µM (inactive)	24.9 µM (inactive)	24.4 µM (inactive)	65 µM (inactive)	20.9 µM (inactive)	23 µM (inactive)	12.9 µM (inactive)	70.3 µM (inactive)	54.2 µM (inactive)	48.2 µM (inactive)	25.2 µM (inactive)	20.1 µM (inactive)			
S=C1/C(=N/c2ccccc2)N(c2ccccc2)/C(=N\c2cccc[n+]2Cc2ccccc2)N1c1ccccc1	16.3 µM (inactive)	18.9 µM (inactive)	39.9 µM (inactive)	21.4 µM	28.1 µM (inactive)	11.5 µM (inactive)	22.5 µM (inactive)	< 0.01 µM (active)	13.9 µM (inactive)	16.4 µM (inactive)	18.9 µM (inactive)	> 10 µM (inactive)	20.6 µM (inactive)		12.1 µM (inactive)	13.4 µM (inactive)	11.9 µM (inactive)	13.3 µM (inactive)	13.4 µM (inactive)
CCn1c(=O)c2c3ccc(OC(C)=O)cc3[nH]c2c2ccc(OC(C)=O)cc21	39 µM (inactive)	23.1 µM (inactive)	> 100 µM (inactive)	62.2 µM	18.5 µM (inactive)	35.2 µM (inactive)	53.1 µM (inactive)	10.1 µM (inactive)	23.7 µM (inactive)	43.3 µM (inactive)	61.5 µM (inactive)	37.2 µM (inactive)	35.8 µM (inactive)		26.9 µM (inactive)	36.1 µM (inactive)	24.1 µM (inactive)	37.2 µM (inactive)	34.2 µM (inactive)
O=C(Nc1ccccc1F)c1cc2ccc(O)cc2o/c1=N\c1cccc(C(F)(F)F)c1	3.9 µM (inactive)	2.94 µM (inactive)	3.22 µM (inactive)	3.59 µM	4.04 µM (inactive)	3.73 µM (inactive)	2.08 µM (inactive)		8.2 µM (inactive)	32.1 µM (inactive)	3.79 µM (inactive)	3.73 µM (inactive)	2.82 µM (inactive)	1.66 µM (inactive)	3.76 µM (inactive)	4.99 µM (inactive)	3.81 µM (inactive)	2 µM (inactive)	
O=P1(Oc2ccccc2)NCc2ncccc2O1 (stereo unspecified)	> 100 µM (inactive)	> 100 µM (inactive)	> 100 µM (inactive)	> 100 µM	> 100 µM (inactive)	> 100 µM (inactive)	> 100 µM (inactive)	> 100 µM (inactive)	> 100 µM (inactive)	> 100 µM (inactive)	> 100 µM (inactive)	> 100 µM (inactive)			> 100 µM (inactive)	> 100 µM (inactive)	> 100 µM (inactive)		> 100 µM (inactive)
Fc1cc(-c2ncc(Cl)cc2Cl)c2cccccc1-2	> 100 µM (inactive)	35.7 µM (inactive)	> 100 µM (inactive)	> 100 µM	> 100 µM (inactive)	> 100 µM (inactive)	> 100 µM (inactive)	> 100 µM (inactive)	> 100 µM (inactive)	76.2 µM (inactive)	> 100 µM (inactive)		> 100 µM (inactive)		> 100 µM (inactive)	> 100 µM (inactive)	> 100 µM (inactive)	> 100 µM (inactive)	92.5 µM (inactive)
O=C1CC(c2cccc(F)c2)Nc2cc3c(cc21)OCO3 (stereo unspecified)	0.0293 µM (active)	0.0472 µM (active)	0.027 µM (active)	0.0394 µM	0.0385 µM (active)	0.0113 µM (active)	0.0483 µM (active)		0.0593 µM (active)	0.0237 µM (active)	0.051 µM (active)	0.0344 µM (active)	0.0914 µM (active)		0.0301 µM (active)	0.042 µM (active)	0.0543 µM (active)	0.0208 µM (active)	0.0247 µM (active)
COc1cc2c(cc1OC)C1=Cc3ccc(OC)c(OC)c3C(C#N)N1CC2 (stereo unspecified)	13.8 µM (inactive)	29.7 µM (inactive)	> 100 µM (inactive)	> 100 µM	39.7 µM (inactive)	33.7 µM (inactive)		5.22 µM (inactive)	18.5 µM (inactive)	33.7 µM (inactive)	> 100 µM (inactive)	21.6 µM (inactive)	29.7 µM (inactive)	39 µM (inactive)	32.4 µM (inactive)	37.1 µM (inactive)	17.1 µM (inactive)	30 µM (inactive)	
O=C(O)CSc1nnc2c3ccccc3c3ccccc3c2n1	52.2 µM (inactive)	40.3 µM (inactive)	> 100 µM (inactive)	44.5 µM	57.9 µM (inactive)	73.8 µM (inactive)	55.6 µM (inactive)	36.6 µM (inactive)	52.6 µM (inactive)	68.4 µM (inactive)	> 100 µM (inactive)	46.8 µM (inactive)	56.1 µM (inactive)		50.2 µM (inactive)	41.8 µM (inactive)	61.9 µM (inactive)	49.9 µM (inactive)	57.9 µM (inactive)
CNc1ncnc2c1cnn2COCC(O)CO (stereo unspecified)	> 100 µM (inactive)	> 100 µM (inactive)	> 100 µM (inactive)	> 100 µM	> 100 µM (inactive)	> 100 µM (inactive)	> 100 µM (inactive)	> 100 µM (inactive)	> 100 µM (inactive)	> 100 µM (inactive)	> 100 µM (inactive)	> 100 µM (inactive)	> 100 µM (inactive)		> 100 µM (inactive)	> 100 µM (inactive)	> 100 µM (inactive)	> 100 µM (inactive)	> 100 µM (inactive)
CCOC(=O)NN(C(=O)OCC)C(C(=O)C1=CCCCC1)N(NC(=O)OCC)C(=O)OCC	9.57 µM (inactive)	> 100 µM (inactive)	> 100 µM (inactive)	> 100 µM	> 100 µM (inactive)	> 100 µM (inactive)	> 100 µM (inactive)	> 100 µM (inactive)	> 100 µM (inactive)	> 100 µM (inactive)	> 100 µM (inactive)	> 100 µM (inactive)	> 100 µM (inactive)		> 100 µM (inactive)	> 100 µM (inactive)		> 100 µM (inactive)	> 100 µM (inactive)
O=C(Nc1cc2c(=O)[nH]c3ccccc3c2oc1=O)c1cnccn1	> 100 µM (inactive)	> 100 µM (inactive)	> 100 µM (inactive)	> 100 µM	> 100 µM (inactive)	> 100 µM (inactive)	> 100 µM (inactive)	> 100 µM (inactive)	> 100 µM (inactive)	> 100 µM (inactive)	> 100 µM (inactive)	> 100 µM (inactive)			> 100 µM (inactive)	> 100 µM (inactive)	> 100 µM (inactive)	> 100 µM (inactive)	> 100 µM (inactive)
